Measurements reported in ChEMBL document CHEMBL1130481, “Structure-activity relationships of carbocyclic influenza neuraminidase inhibitors” (Bioorg Med Chem Lett, 1997).

Key:
[1] = target: Neuraminidase (Influenza A virus (A/Puerto Rico/8/1934(H1N1)), UniProt P03468); assay: Inhibition of neuraminidase of influenza A/PR/8/34(H1N1)
[2] = tested on: unidentified influenza virus; assay: Concentration required for 50% inhibition of influenza A/WS/33 by plaque reduction assay; type: functional, organism-based

Neuraminidase (Influenza A virus (A/Puerto Rico/8/1934(H1N1)), UniProt P03468), sequence (P03468 whole entry): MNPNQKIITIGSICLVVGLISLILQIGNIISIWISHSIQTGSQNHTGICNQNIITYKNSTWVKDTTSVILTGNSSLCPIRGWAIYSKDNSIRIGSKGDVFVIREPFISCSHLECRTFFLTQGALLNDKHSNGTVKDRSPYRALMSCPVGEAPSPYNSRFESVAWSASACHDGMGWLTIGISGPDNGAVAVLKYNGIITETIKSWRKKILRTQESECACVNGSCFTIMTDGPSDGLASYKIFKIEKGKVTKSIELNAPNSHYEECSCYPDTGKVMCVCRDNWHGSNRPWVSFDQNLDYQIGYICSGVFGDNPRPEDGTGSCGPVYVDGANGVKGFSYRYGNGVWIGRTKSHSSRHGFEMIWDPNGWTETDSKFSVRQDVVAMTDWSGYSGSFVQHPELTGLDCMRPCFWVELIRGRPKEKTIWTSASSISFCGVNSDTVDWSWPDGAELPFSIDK

Structure (SMILES)	IC50 [1]	IC50 [2]
CC(=O)N[C@@H]1[C@@H](N)CC(C(=O)O)=C[C@H]1Oc1ccccc1	530 nM	
CCCO[C@@H]1C=C(C(=O)O)C[C@H](N=C(N)NC)[C@H]1NC(C)=O	4.6 nM	1.6 nM
CC(=O)N[C@@H]1[C@@H](N)CC(C(=O)O)=C[C@H]1OC1CCCCC1	60 nM	
CCCO[C@@H]1C=C(C(=O)O)C[C@H](N)[C@H]1NC(=O)C(F)(F)F	1400 nM	22000 nM
CCCO[C@@H]1C=C(C(=O)O)C[C@H](N)[C@H]1NS(C)(=O)=O	25000 nM	
CC(=O)N[C@@H]1[C@@H](N)CC(C(=O)O)=C[C@H]1OCCC(F)(F)F	225 nM	
C=CCO[C@@H]1C=C(C(=O)O)C[C@H](N)[C@H]1NC(C)=O	2200 nM	
CCCO[C@@H]1C=C(C(=O)O)C[C@H](NC=N)[C@H]1NC(C)=O	140 nM	
CCCO[C@@H]1C=C(C(=O)O)C[C@H](N)[C@H]1NC(=O)CC	1500 nM	
CC(=O)N[C@@H]1[C@@H](N)CC(C(=O)O)=C[C@H]1OC1CCCC1	22 nM	
CCCO[C@@H]1C=C(C(=O)O)C[C@H](N)[C@H]1NC(C)=O	130 nM	44000 nM
COCO[C@@H]1C=C(C(=O)O)C[C@H](N)[C@H]1NC(C)=O	2000 nM	
CCCO[C@@H]1C=C(C(=O)O)C[C@H](N=C(N)N)[C@H]1NC(C)=O	1.8 nM	44 nM
